Results from patent US7455860B2, “Dietary supplement formulation for controlling inflammation and cancer” (Laila Nutraceuticals, priority 2005, dated 2008).
Several values for one entry are separate records, joined by “and”; a condition that tells them apart may be missing. Equal entries are not always repeated.

How the values were obtained:
[1] = system: Freund's Adjuvant-Induced Arthritis; test: Freund's Adjuvant-Induced Arthritis in Wistar Albino rats (paw volume by Plethysmograph); format: in vivo
Experimental: Effect of 5-LOXIN compositions on Freund's Adjuvant-Induced Arthritis in Winstar Albino rats: Wistar Albino rats of either sex were selected randomly and divided into groups containing 6 rats (3 male and 3 female) each. The rats of treatment groups were administered orally a suspension of 5-LOXIN (15 mg/kg, p.o.) or glucosamine salt (135 mg/kg, p.o.) or curcuminoids (20 mg/kg, p.o.) or ginger (3 mg/kg, p.o.) or one fifth of a formulation containing unit doses of all the four ingredients [formulation I: 5-LOXIN (15 mg)+glucosamine (135 mg)+curcuminoids DP 95% (20 mg)+Ginger DP 15% total pungent compounds (3 mg)]or prednisolone (10 mg/kg, p.o.) in 0.5% CMC, for 30 days. The control group received 0.5% CMC. Following the drug treatment all animals were challenged, on 31st day, with 50 μl of complete Freund's adjuvant injection to the sub plantar region of right hind paw. The paw volume was measured before (V0) and after the injection of Freund's adjuvant at the end of 30, 60, 120, 180, 240 and 360 min by Plethysmograph. The paw oedema was measured everyday upto 17th day.

degenerative arthritis = details: treatment group; 20% in placebo group; cited from earlier work

Row | SMILES | % protection ([1]; day 13, against control group mean oedema 0.478) [%] | Day-13 E, ME (mean oedema of the group) ([1]; group mean, oral treatment for 30 days) [mL] | Paw Volume After Freund's Adjuvant, Day-13 E (oedema) ([1]; individual rat, Day-13 PV minus 0 hr, oral treatment for 30 days, hydrochloride) | Paw Volume After Freund's Adjuvant, Day-13 PV ([1]; individual rat, oral treatment for 30 days, adjuvant on 31st day, read on day 13, dose per sample in table, hydrochloride) | Improvement in degenerative arthritis (degenerative arthritis) [%]
1 | Cl.N[C@H]1C(O)O[C@H](CO)[C@@H](O)[C@@H]1O (some centres unmarked) [Glucosamine, glucosamine hydrochloride] | 37.94 | 0.30 | 0.37 mL and 0.3 mL and 0.22 mL | 1.56 mL and 1.59 mL and 1.53 mL | –
2 | CS(C)(=O)=O [MSM, Methylsulfonylmethane] | – | – | – | – | 80
